# Entries after “also recorded” stand apart in the source; their conditions may differ.
# How the values were obtained:
# [1] = test system: CD8+ T cells; assay: Ki67 expression on CD8+ T cells, human PBMC, flow cytometry; format: cell-based
# Excerpt: (§1) Exemplary IL-2 variant Fc fusion protein P-0573 was further characterized for induction of Ki-67 expression by flow cytometry.
# [2] = test system: NK cells; assay: Ki67 expression on NK cells, human PBMC, flow cytometry; format: cell-based
# Excerpt: as §1
# [3] = test system: CD4+ Treg vs CD4+ Tconv cells; assay: STAT5 phosphorylation, selectivity / activity profile Treg versus CD4+ Tconv cells, human PBMC; format: cell-based
# In short: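 Fresh human PBMC from a healthy donor, serum-starved 1 h at 4 °C, then exposed to serial dilutions of IL-2 variants for 30 min at 37 °C. After fixation/permeabilization, cells stained for CD4, CD25, FOXP3 and pSTAT5 and analysed by flow cytometry. Treg (CD4+/Foxp3+/CD25high) and Tconv (CD4+/Foxp3−/CD25low) gated; read-out is percent pSTAT5-positive cells.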
# [4] = test system: CD4+/Foxp3+/CD25+ Treg, CD4+/Foxp3-/CD25+ Teff and CD4+/Foxp3-/CD25- naive T cells; assay: STAT5 phosphorylation in three CD4+ T cell subsets (Treg, CD4 effector, CD4 naive), human PBMC; format: cell-based
# Excerpt: In addition to being assessed for their ability to differentially stimulate Stat5 phosphorylation in CD4 positive Treg (CD4+/Foxp3+/CD25^high) versus Tconv (CD4+/Foxp3−/CD25^low) cells, two variants, P-0511 and P-0512, were further assayed for their ability to stimulate other effector T and NK cells, including CD4 positive Teff (CD4+/Foxp3-/CD25+), CD8 cytotoxic T effector and NK cells in comparison to wild-type IL-2 (P-0250) and three IL-2 benchmark molecules containing V91K, N88R, N88D respectively.
# After human PBMC Cells were treated with serial dilutions of test compounds, fixed and permeabilized, washed, and stained with a mixture of anti-CD25-PE, anti-FOXP3-APC, anti-pSTAT5-FITC, and anti-CD4-PerCP-Cy5.5 antibodies, the flow cytometry analysis was gated into CD4+/Foxp3+/CD25+, CD4+/Foxp3−/CD25+, CD4+/Foxp3−/CD25− groups for the Treg, CD4 effector, and CD4 naive T cell subsets, respectively. Data are expressed as a percent of pStat5 positive cells in gated population and illustrated in FIG. 9.
# [5] = test system: CD8+ T cells; assay: CD8+ T cell proliferation, CFSE dilution, human PBMC; format: cell-based; conditions: 5 or 7 days incubation
# Description: (§2) Further, P-0511 and P-0512 were tested for their ability to stimulate NK and CD8+ T cells proliferation in comparison with the wild type and benchmark molecules. Intracellular fluorescent label carboxyfluorescein diacetate succinimidyl ester (CFSE) method was utilized. Briefly, human PBMC (1×10^5 cells/well) were labeled with CFSE, plated onto 96-well plates, and incubated with increasing concentrations of different IL-2 compounds. Cells were then harvested after 5 or 7 days of incubation and stained with either anti-CD56-APC antibody for NK cells or anti-CD8-APC antibody for CD8+ T cells; and analyzed by flow cytometry. Data are expressed as a percent of divided cells and illustrated in FIG. 10A for CD8+ T cell proliferation and FIG. 10B for NK cell proliferation.
# [6] = test system: NK cells; assay: NK cell proliferation, CFSE dilution, human PBMC; format: cell-based; conditions: 5 or 7 days incubation
# Description: as §2
# [7] = test system: Treg cells; assay: Treg proliferation and expansion in mice after a single subcutaneous injection (Example 9); format: in vivo, mouse; conditions: 0.3 mg/kg single s.c., C57/BL6 mice
# Description: (§3) IL-2 variant Fc fusion proteins were administered to mice and their ability to preferentially proliferate and expand regulatory T cells (CD4+CD25+FoxP3+ T cells) over effector T cells and NK cells were determined in vivo.
# (§4) Female C57/BL6 mice (7-week old) were received from Charles River Laboratory and acclimated in house for at least 7 days before the study. Vehicle (PBS), 0.3 mg/kg of each test compounds, or IL-2 benchmark compounds were subcutaneously administered to mice on day 0. Peripheral blood samples were collected into heparin-treated tubes on days 3, 5 and 7 post-treatment. Each group contained 6 mice and baseline blood was collected 2 days prior to the treatment (day −2). After red blood cell lysis, total viable mononuclear blood cells were counted by trypan blue dead cell exclusion method and proceeded to intracellular staining for immune cell phenotype and Ki67 proliferation markers using flow cytometric analysis. Cells were stained separately with two panels of antibodies as listed: 1) anti-mouse Foxp3-FITC, Ki67-PE, anti-mouse CD25-APC and anti-mouse CD4-Percpcy5.5 (1:50 dilution) for CD4+T-regulatory cells (Treg); 2) anti-mouse CD3-FITC, Ki67-PE, anti-mouse CD335-APC and anti-mouse CD8-Percpcy5.5 (1:50 dilution) for CD8+T and NK cells.
# [8] = test system: CD4+ Tconv cells, CD8 T cells and NK cells; assay: Effector T cell and NK cell proliferation and expansion in mice after a single subcutaneous injection (Example 9); format: in vivo, mouse; conditions: 0.3 mg/kg single s.c., C57/BL6 mice
# Description: as §3, §4
# [9] = test system: Treg cells; assay: Treg pharmacodynamics in mice after repeated administration Q3D (Example 11); format: in vivo, mouse; conditions: 0.3 mg/kg s.c.
# Description: Female Balb/C mice (7-week old) were acclimated in house for 5-7 days before the study. Vehicle (PBS), 0.3 mg/kg of P-0511, P-0512, P-0531, or Benchmark-1 compound were subcutaneously administered to mice (n=5/group) on days 0, 3, and 6. On days 3 and 9, three days after the first injection and multiple (3) injections, respectively, peripheral blood was collected. Based on earlier in vivo experiments, Treg cell activation, proliferation, and expansion were expected to peak on day 3, and thus three days post injection was selected for data collection and analysis. Changes in blood lymphocyte activation, proliferation, and expansion were measured by flow cytometry. P-0531 is the S125I equivalent of the wild type IL-2 fusion protein. The Benchmark-1 contains V91K mutation.
# [10] = test system: Treg cells; assay: Treg proliferation and expansion in mice after a single s.c. injection of bifunctional constructs (Example 17); format: in vivo, mouse; conditions: 15 nmol/kg single s.c.; for potency in inducing Treg cell proliferation and expansion in vivo (in words): C57/BL6 mice
# Description: as §3, with “IL-2 variant tocilizumab bifunctional proteins P-0536, P-0546, P-0559, and P-0560 along with IL-2” for “IL-2”, “protein P-0511” for “proteins”, “mice,” for “mice”
# (§5) Female C57/BL6 mice (7-week old) were received from Charles River Laboratory and acclimated in house for at least 7 days before the study. Vehicle (PBS) and 15 nmol/kg each test compounds were subcutaneously administered to mice on day 0. Peripheral blood samples were collected into heparin-treated tubes on days 2, 4 and 8 post-treatment. Each group contained 5 mice and baseline blood was collected 3 days prior to the treatment (day −3).
# [11] = test system: CD4+ Tconv, activated CD4+ T, CD8+ T and NK cells; assay: Effector T cell and NK cell proliferation and expansion in mice, bifunctional constructs (Example 17); format: in vivo, mouse; conditions: 15 nmol/kg single s.c.
# Description: as §3, with “IL-2 variant tocilizumab bifunctional proteins P-0536, P-0546, P-0559, and P-0560 along with IL-2” for “IL-2”, “protein P-0511” for “proteins”, “mice,” for “mice”
# as §5
# [12] = test system: CD4+ T cells; assay: Ki67 expression on CD4+ T cells, human PBMC, flow cytometry; format: cell-based
# Excerpt: as §1
Substance,induction of Ki67 expression in CD8+ T cells [1],induction of Ki67 expression in NK cells [2],"Treg/Tconv ratio (Ki67 stimulation, cell counts) [10]",expression of CD25 and Foxp3 on Treg cells [10],potency in inducing Treg cell proliferation and expansion in vivo (in words) [10],change of the activated CD4+ T cells [11],further results
"Benchmark-4: benchmark Fc-IL-2 fusion with IL-2Rα-disrupting triple mutations F42A/Y45A/L72G, SEQ ID NO: 250 [reference compound]",equally effective,equally effective,,,,,
"P-0512: IL-2 L19H/S125I/Q126K Fc fusion, SEQ ID NO: 214",,,,,,,"Treg Selectivity ([3]; Isoleucine-125 constructs): Yes; pSTAT5 activity profile in Treg, Teff and naive CD4 T cell subsets (in words) [4]: comparable activity profile to Benchmark-1; potency in stimulating CD8+ T cell proliferation (in words) [5]: comparable activity profile to Benchmark-1; potency in stimulating NK cell proliferation (in words) [6]: comparable activity profile to Benchmark-1; Treg/Tconv ratio (Ki67 stimulation and cell counts) ([7]; all measured time points): most beneficial Treg/Tconv ratio; stimulation of Treg cell proliferation and expansion in vivo (in words) ([7]; days 3, 5, 7): stronger in vivo efficacy; Ki67 stimulation on CD8 T cells and NK cells in vivo (in words) [8]: mild Ki67 stimulation; expansion of CD4+ Tconv cells, CD8 T cells or NK cells in vivo [8]: No significant expansion; % Treg over total CD4 T cells or over total lymphocytes ([9]; after three consecutive Q3D treatments): sustained at significantly high levels; Treg cell counts, fold changes relative to PBS and Treg/Tconv ratio ([9]; repeated dosing Q3D): superior capabilities to sustain Treg pool and maintain Treg selectivity"
"P-0546: Tocilizumab IL-2 L19H/S125I/Q126E monovalent fusion, SEQ ID NOs 253 + 254 + 256",,,most beneficial Treg/Tconv ratio,highest expression of CD25,highest potency,slight increase,
"P-0560: Tocilizumab IL-2 D20Q/S125I monovalent fusion, SEQ ID NOs 253 + 254 + 266",,,most beneficial Treg/Tconv ratio,highest expression of CD25,highest potency,slight increase,activity profile / selectivity window Treg over CD4+ Tconv (in words) [3]: selective activation of Treg cells over CD4+ Tconv cells
"P-0573: IL-2 R38A/P65G/S125I Fc fusion, SEQ ID NO: 247",equally effective,equally effective,,,,,induction of Ki67 expression in CD4+ T cells [12]: substantially reduced potency; also recorded: higher potency than Benchmark-4

# From patent US20220170028A1, “NOVEL INTERLEUKIN-2 VARIANTS AND BIFUNCTIONAL FUSION MOLECULES THEREOF” (Cugene Inc, priority 2019, published 2022)
